Data reported in article PMC9597602, “Metal Complexes as Antifungals? From a Crowd-Sourced Compound Library to the First In Vivo Experiments” (JACS Au, 2022).
Entries after “also recorded” stand apart in the source; their conditions may differ. Read-outs that look alike come from different tables or passages of the source.

Key:
[1] = test system: Cryptococcus neoformans H99 ATCC 208821 type strain; assay: Antifungal MIC assay; assay type: cell-based; conditions: for MIC50 Cryptococcus neoformans ATCC 208821: 50% inhibition, MIC score 2
In short: (§1)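 Colonies from 3-day YPD plates (30 °C) were suspended, diluted into YNB and added to compound plates at a final density of 2.5 × 10^3 CFU/mL. After 36 h at 35 °C without agitation, growth inhibition of ≥80% defined the MIC. Two technical replicates, 2–4 independent runs.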

[2] = test system: HEK-293 human embryonic kidney cells ATCC CRL-1573; conditions: for HEK CC50: initial CO-ADD screening, 20 h; for CC50: read-out: HEK293 CC50, ranges obtained upon retesting, new batch
Experimental: The cells were incubated together with the compounds for 20 h at 37 °C in 5% CO2. […] Tamoxifen (Sigma T5648) was used as internal control on each plate.

[3] = test system: Candida tropicalis ATCC 750; assay: Antifungal MIC assay, extended panel; assay type: cell-based; conditions: extended panel; 50% inhibition, MIC score 2
human red blood cells = assay type: cell-based
In short: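 Washed human erythrocytes at 0.5 × 10^8 cells/mL incubated with compound, then centrifuged. Haemolysis read as supernatant OD405, normalised to untreated cells (0%) and 1% Triton X-100 (100%), with melittin as internal plate control.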

[4] = test system: Cryptococcus deuterogattii ATCC 32609 VGII; assay: Antifungal MIC assay, extended panel; assay type: cell-based; conditions: extended panel; 50% inhibition, MIC score 2
G. mellonella larvae = assay: Galleria mellonella in vivo toxicity assay; conditions: 10 μL of the highest concentration injected, monitored 6 days
Experimental: Based on criteria of overall antifungal activity, cytotoxicity, and hemolysis as well as compound availability, we selected compounds Co1, Ag2, Eu1, Ir1, Pt1, Pt2, Pt4, Pt5, Au1, Au2, and Au4 to conduct a preliminary in vivo toxicity assay. […] The compounds were dissolved in DMSO and diluted to the highest possible final concentration (Table 3). The larvae were then monitored for 6 days for survival and health using the G. mellonella Health Index Scoring System.[111] […] For the other compounds, no detrimental effects could be observed in the larvae over the monitoring period. […] Nevertheless, factors such as the metabolism, excretion, and/or accumulation of the various metal complexes and their metabolites will still need to be studied more rigorously in rodent models if they are to be advanced into the preclinical pipeline.
The toxicity of compounds was tested in vivo using the G. mellonella model using our previously described methods,[61] Briefly, G. mellonella larvae were reared in a controlled environmental room at Macquarie University, Sydney, Australia, at 30 °C and 65% humidity with a 12-h light/dark cycle. Larvae (200–250 mg) were individually injected with 10 μL of chemical into the last right pro-leg using a 100 μL syringe (Hamilton Ltd.). Each compound was dissolved in DMSO at the maximum concentration given in Table 3 and also diluted in water to final concentrations of 100, 10, and 1 μM. We injected five larvae in triplicate for each of the four dilutions for each compound. Larvae injected with different dilutions of DMSO (10^–1, 10^–2, and 10^–3) were included as negative controls. Following injection, the larvae were incubated at 30 °C and monitored every 24 h for 6 days. Larval performance was assessed according to the G. mellonella Health Index Scoring System.[111] The experiments were repeated over three separate days for biological triplicates.

[5] = test system: Cryptococcus deuterogattii CBS7750 VGII; Serotype B; assay: Antifungal MIC assay, extended panel; assay type: cell-based; conditions: extended panel; 50% inhibition, MIC score 2
[6] = test system: Candida glabrata ATCC 90030 NCCLS 84; assay: Antifungal MIC assay, extended panel; assay type: cell-based; conditions: extended panel; 50% inhibition, MIC score 2
[7] = test system: Candida tropicalis ATCC 750; assay: Antifungal MIC assay, extended panel; assay type: cell-based; conditions: extended panel, second batch; ≥80 or ≥50% inhibition
Experimental: (§2) For the fungal assays, both fungi (yeast) strains were cultured for 3 days on Yeast Extract-Peptone Dextrose (YPD; Becton Dickinson 242720) agar at 30 °C. A yeast suspension of 1 × 10^6 to 5 × 10^6 CFU/mL (as determined by OD530) was prepared from five colonies from the agar plates, subsequently diluted with Yeast Nitrogen Base media (YNB; Becton Dickinson 233520), and added to each well of the compound containing plates (384-well plates, NBS; Corning CLS3640), giving a final cell density of 2.5 × 10^3 CFU/mL and a total volume of 50 μL. Plates were covered and incubated at 35 °C for 36 h without shaking. […] MIC values were recorded as the lowest concentration at which the growth was inhibited by ≥80%, equivalent to ″optically clear-to-slightly hazy″ or MIC score of 0–1 as per CLSI guidelines M27 Reference Method for Broth Dilution Antifungal Susceptibility Testing of Yeasts. […] Fluconazole (Sigma F8929) was used as internal control on each plate for all strains. All compounds were tested as two technical replicates in two to four independent biological assays, n = 4–8 final data.

[8] = test system: Cryptococcus deuterogattii CBS7750 VGII; Serotype B; assay: Antifungal MIC assay, extended panel; assay type: cell-based; conditions: extended panel, second batch; ≥80 or ≥50% inhibition
Experimental: as §2

[9] = test system: Candida glabrata ATCC 90030 NCCLS 84; assay: Antifungal MIC assay, extended panel; assay type: cell-based; conditions: extended panel, second batch; ≥80 or ≥50% inhibition
Experimental: as §2

[10] = test system: Cryptococcus deuterogattii ATCC 32609 VGII; assay: Antifungal MIC assay, extended panel; assay type: cell-based; conditions: extended panel, second batch; ≥80 or ≥50% inhibition
Experimental: as §2

[11] = test system: Candida albicans ATCC 90028 NCCLS11; assay: Antifungal MIC assay; assay type: cell-based; conditions: for MIC Candida albicans ATCC 90028 / MIC50 Candida albicans ATCC 90028: extended panel; for MIC Candida albicans ATCC 90028: second batch, ≥80 or ≥50% inhibition; for MIC50 Candida albicans ATCC 90028: 50% inhibition, MIC score 2
In short: as §1

[12] = test system: Candida auris CBS12373 KCTC 17810; assay: Antifungal MIC assay, extended panel; assay type: cell-based; conditions: extended panel; for MIC50 Candida auris CBS12373: 50% inhibition, MIC score 2
In short: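 This broth microdilution MIC test followed the reference method for antifungal susceptibility testing of yeasts. Fluconazole served as the internal control on every plate. Inoculum came from 3-day YPD agar cultures, was diluted in YNB to 2.5 × 10^3 CFU/mL in 50 μL per well of 384-well plates, and was incubated 36 h at 35 °C. Compounds ran as two technical replicates across two to four independent assays.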

[13] = test system: Candida auris CBS10913 JCM 15448; assay: Antifungal MIC assay, extended panel; assay type: cell-based; conditions: extended panel; for MIC: read-out: MIC* Candida auris CBS10913; for MIC50 Candida auris CBS10913: 50% inhibition, MIC score 2
In short: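 This broth dilution MIC test for yeast used colonies cultured 3 days at 30 °C on YPD agar, suspended to 1 × 10^6 to 5 × 10^6 CFU/mL by OD530 and diluted with YNB. Cells were added at a final 2.5 × 10^3 CFU/mL (50 μL total) to 384-well plates with compound, incubated unshaken at 35 °C for 36 h, with fluconazole as an internal control on every plate.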

[14] = test system: Pseudomonas aeruginosa ATCC 27853 QC control strain; assay: CO-ADD antibacterial MIC assay; assay type: cell-based; conditions: initial CO-ADD dose-response screening; ≥80% growth inhibition
In short: (§3)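 Broth microdilution: compounds exposed for 18 h at 37 °C, static, to 5 × 10^5 CFU/mL of mid-log bacteria in cation-adjusted MH broth. OD600 defines MIC as lowest concentration with ≥80% inhibition; n = 4 (2 technical × 2 biological).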

[15] = test system: Acinetobacter baumannii ATCC 19606 type strain; assay: CO-ADD antibacterial MIC assay; assay type: cell-based; conditions: initial CO-ADD dose-response screening; ≥80% growth inhibition
In short: as §3

[16] = test system: Escherichia coli ATCC 25922 FDA control strain; assay: CO-ADD antibacterial MIC assay; assay type: cell-based; conditions: initial CO-ADD dose-response screening; ≥80% growth inhibition
In short: as §3

[17] = test system: methicillin-resistant Staphylococcus aureus ATCC 43300; assay: CO-ADD antibacterial MIC assay; assay type: cell-based; conditions: initial CO-ADD dose-response screening; ≥80% growth inhibition
In short: as §3

[18] = extended panel, second batch, ≥80 or ≥50% inhibition
[19] = ranges obtained upon retesting, new batch
[20] = second batch, ≥80 or ≥50% inhibition
[21] = initial CO-ADD screening, 1 h, 10% hemolysis
[22] = initial CO-ADD dose-response screening, ≥80% growth inhibition

Row | SMILES | MIC Cryptococcus neoformans ATCC 208821 [1, 18] [µM] | MIC50 Cryptococcus neoformans ATCC 208821 ([1]; extended panel) [µM] | HEK CC50 [2] [µg/mL] | CC50 [2] [µM] | MIC50 Candida tropicalis ATCC 750 [3] [µM] | RBC HC10 (human red blood cells; [19]) [µM] | MIC50 Cryptococcus deuterogattii ATCC 32609 [4] [µM] | toxicity (G. mellonella larvae) | MIC50 Cryptococcus deuterogattii CBS7750 [5] [µM] | MIC50 Candida glabrata ATCC 90030 [6] [µM] | MIC Cryptococcus deuterogattii CBS7750 [8] [µM] | MIC Cryptococcus deuterogattii ATCC 32609 [10] [µM] | MIC Candida albicans ATCC 90028 [11] [µM] | MIC50 Candida albicans ATCC 90028 [11] [µM] | MIC50 Candida auris CBS12373 [12] [µM] | MIC [13, 20] [µM] | MIC50 Candida auris CBS10913 [13] [µM] | RBC HC10 (human red blood cells; [21]) [µg/mL] | MIC [7] [µM] | MIC [9] [µM] | other results
1 | c1cnc([S][Au][PH](c2ccco2)(c2ccco2)c2ccco2)nc1 [Au1] | 0.098 to 0.195 | 0.098 to 0.195 | >32 | 0.1 to 0.6 | 0.049 to 0.391 | 90 to 200 | 0.024 to 0.049 | nontoxic | 0.024 to 0.098 | 0.098 to 0.391 | 0.024 to 0.391 | 0.098 to 0.391 | 0.049 to 0.391 | 0.049 to 0.391 | 0.098 to 0.391 | 0.098 | 0.098 to 0.195 |  |  |  | MIC Candida tropicalis ATCC 750 [7]: 0.049 to 0.391 µM; MIC Candida glabrata ATCC 90030 [9]: 0.098 to 0.781 µM; MIC Candida auris CBS12373 [12, 20]: 0.098 to 0.391 µM
2 | c1ccc([PH]([Au][S]c2ccccn2)(c2ccccc2)c2ccccc2)cc1 [Au2] | 0.024 to 0.195 | 0.024 to 0.195 | >32 | 0.8 to 200 | ≥ 200 | > 200 | 0.049 to 0.195 | showed signs of toxicity; also recorded: toxic at 1 mM | 0.049 to 1.56 | > 200 |  | 0.049 to 0.391 |  |  | 0.098 to 0.195 | 0.195 | 0.098 to 1.56 | >32 | >200 | >200 | MIC [8]: 0.098 µM; MIC Pa [14]: >32 µg/mL; MIC Ab [15]: >32 µg/mL; MIC Ec [16]: >32 µg/mL; MIC ([12]; second batch, ≥80 or ≥50% inhibition, read-out: MIC* Candida auris CBS12373): 0.195 µM
3 | Cc1c(C)c(-c2ccc(-c3ccccc3)cc2)[c-](C)c1C.Cc1ccccc1NC1=[NH+][Ir]([Cl])[NH]C(NS(=O)(=O)c2cccc3c(N(C)C)cccc23)=N1 [Ir3] |  | 0.024 | >32 | 54 to 76 | 0.098 | 3 to 41 | 0.049 to 0.098 |  | 0.024 | 0.098 | 0.024 to 0.049 | 0.049 to 0.2 | 0.024 to 0.098 | 0.049 | 0.024 to 0.049 |  | 0.098 | >32 | 0.098 | 0.098 | MIC ([1]; extended panel, second batch, ≥80 or ≥50% inhibition, read-out: MIC* Cryptococcus neoformans ATCC 208821): 0.024 µM; MIC Cn [1, 22]: 1 µg/mL; MIC Pa [14]: >32 µg/mL; MIC Ab [15]: >32 µg/mL; MIC Ec [16]: >32 µg/mL; MIC MRSA (Sa) [17]: 0.5 µg/mL; MIC Ca [11, 22]: 2 µg/mL; MIC Candida auris CBS10913 [13, 20]: 0.024 to 0.098 µM
